According to patent US10385103B2, “Cell-permeable (ICP)-SOCS3 recombinant protein and uses thereof” (CELLIVERY THERAPEUTICS, INC., priority 2014, dated 2019):
pIC50: −log10 of the molar value. “Also recorded” adds a separate entry of the source.

Columns and labels:
Huh7 cells [1] = assay: Induction of apoptosis, Annexin V/7-AAD staining; type: cell-based, human; settings: example 20-2
Method: (§1) AGS cells (gastric carcinoma cell line) (American Type Culture Collection; ATCC) were seeded in a 12-well plate at a density of 1×10^5 cells/well, and then treated with 10 uM of aMTD/SD-fused SOCS3 for 14 hours. Cancer cell death was analyzed by Annexin V analysis. Annexin V/7-Aminoactinomycin D (7-AAD) staining was performed using flow cytometry according to the manufacturer's guidelines (BD Pharmingen, San Diego, Calif., USA). Briefly, cells were washed three times with ice-cold PBS. The cells were then resuspended in 100 μl of binding buffer and incubated with 1 μl of 7-AAD and 1 μl of annexin V-PE for 30 min in the dark at 37° C. Flow cytometric analysis was immediately performed using a guava easyCyte™ 8 Instrument (Merck Millipore, Darmstadt, Germany).
(§2) The effect of inducing apoptosis of Chang liver cells was measured in the same manner as in Example 11-2, except that as target cell lines, normal Chang liver cells and hepatocellular carcinoma cell lines, Hep3B, HepG2, Huh7, and SK-HEP-1 were used, and as a reference drug, 5-FU® (IC50: 40 μM) was used.

Hep3B cells = assay: Induction of apoptosis, Annexin V/7-AAD staining; type: cell-based, human; settings: example 20-2
Method: as §1, §2

SK-Hep-1 cells = assay: Induction of apoptosis, Annexin V/7-AAD staining; type: cell-based, human; settings: example 20-2
Method: as §1, §2

[2] = read-out: IC50 (stated for reference drug); cited from earlier work
[3] = tested on: HCCs (Hep3B, HepG2, Huh7 and SK-HEP-1); assay: Inhibition of cell cycle progression (PI staining, flow cytometry); type: cell-based, human; settings: reference drugs
Method: To further determine the effect of iCP-SOCS3 on the tumorigenicity of hepatocellular carcinoma cells, we subsequently investigated whether iCP-SOCS3 regulates cell cycle progression in HCCs (Hep3B, HepG2, Huh7 and SK-HEP-1).
HCCs and normal cells were treated with 10 uM protein (Non-CP-SOCS3 (HS3B) and iCP-SOSC3 (HM165S3B)) for 8 hrs. After the treatment, cells were washed twice with cold PBS and re-suspended in 1 ml cold PBS, fixed in cold 70% ethanol, washed with cold PBS twice and re-suspended in PI master mix (PI 10 ug/ml (SIGMA, USA), 50 ug/ml RNase A (Invitrogen, USA) in staining buffer) at a final cell density of 2×10^5 cell/ml. The cell mixtures were incubated 30 min in the dark at 4° C. Flow cytometric analysis was immediately performed using a guava easyCyte™ 8 Instrument (Merck Millipore, Darmstadt, Germany).

HepG2 cells [4] = assay: Induction of apoptosis, Annexin V/7-AAD staining; type: cell-based, human
Method: as §1
Annexin V/7-Aminoactinomycin D (7-AAD) staining was performed using flow cytometry according to the manufacturer's guidelines (BD Pharmingen, San Diego, Calif., USA). Briefly, 1×10^6 cells were washed three times with ice-cold PBS. The cells were then resuspended in 100 μl of binding buffer and incubated with 1 μl of 7-AAD and 1 μl of […] for 30 min in the dark at 4° C. Flow cytometric analysis was immediately performed using a guava easyCyte™ 8 Instrument (Merck Millipore, Darmstadt, Germany). In this regard, Cisplatin® (IC50: 30 μM) was used as a reference drug.
as §2

Huh7 cells [5] = assay: Induction of apoptosis, TUNEL assay; type: cell-based, human; settings: 10 μM, 24 hr, 2% fetal bovine serum
Method: Apoptotic cells were analyzed using terminal dUTP nick-end labeling (TUNEL) assay with In Situ Cell Death Detection kit TMR red (Roche, 4056 Basel, Switzerland). Cells were treated for 24 hr with 10 μM HS3B or HM165S3B proteins with 2% fetal bovine serum and apoptotic cells were visualized by TUNEL staining. Treated cells were washed with cold PBS two times, fixed in 4% paraformaldehyde (PFA, Junsei, Tokyo, Japan) for 1 hr at room temperature, and incubated in 0.1% Triton X-100 for 2 min on the ice. Cells were washed with cold PBS twice, and treated TUNEL reaction mixture for 1 hr at 37° C. in dark, washed cold PBS three times and observed by fluorescence microscopy (Nikon, Tokyo, Japan). Cisplatin® (IC50: 30 μM) was used for reference drug.

HepG2 tumor = assay: Anti-tumor activity in cell-derived xenograft model; settings: iCP-SOCS3 IV 50 mg/kg every day; Cisplatin IP 4 mg/kg twice a week; 3 weeks
Method: Female Balb/c^nu/nu mice (5-week-old, Doo-Yeol Biotech Co. Ltd. Korea) were subcutaneously implanted with Hep3B2.1-7 tumor block (1 mm^3) into the left back side of the mouse. […] Tumor size was monitored by measuring the longest (length) and shortest dimensions (width) once a day with a dial caliper, and tumor volume was calculated as width2×length×0.5.
Then, tumor volumes were examined. […] Then, tumor volumes were examined.

IL-6 = assay: LPS/IFN-γ-induced cytokine secretion in peritoneal macrophages (cytometric bead array), IL-6; type: cell-based, C3H/HeJ mice; settings: 10 μM protein; IFN-γ and LPS
Method: (§3) Peritoneal macrophages were obtained from C3H/HeJ mice (Doo-Yeol Biotech Co. Ltd. Korea) Peritoneal macrophages were incubated with 10 μM SOCS3 recombinant proteins (1:HS3, 2:HM165S3, 3:HM165S3A and 4:HM165S3B, respectively) for 1 hr at 37° C. and then stimulated them with LPS (Lipopolysaccharide)(500 ng/ml) and/or IFN-γ (100 U/ml) without removing iCP-SOCS3 proteins for 3, 6, or 9 hrs. The culture media were collected, and the extracellular levels of cytokine (TNF-α, IL-6) were measured by a cytometric bead array (BD Pharmingen, San Diego, Calif., USA) according to the manufacturer's instructions.

STAT1 = assay: Inhibition of IFN-γ-induced STAT phosphorylation in PANC-1 cells (western blot), STAT1; type: cell-based; settings: PANC-1, 10 ng/ml IFN-γ 15 min, 10 μM protein 2 hrs
Method: (§4) PANC-1 Cells (KCLB, Seoul, South Korea) were treated with 10 ng/ml IFN-γ (R&D systems, Abingdon, UK) for 15 min and treated with either DMEM (vehicle) or 10 μM aMTD/SD-fused SOCS3 recombinant proteins for 2 hrs. The cells were lysed in RIPA lysis buffer (Biosesang, Seongnam, Korea) containing proteinase inhibitor cocktail (Roche, Indianapolis, Ind., USA), incubated for 15 min at 4° C., and centrifuged at 13,000 rpm for 10 min at 4° C. Equal amounts of lysates were separated on 10% SDS-PAGE gels and transferred to a nitrocellulose membrane. The membranes were blocked using 5% skim milk in TBST and for western blot analysis incubated with the following antibodies: anti-phospho-STAT1 (Cell Signaling Technology, USA) and anti-phospho-STAT3 (Cell Signaling Technology, USA), then HRP conjugated anti-rabbit secondary antibody (Santacruz).

STAT3 = assay: Inhibition of IFN-γ-induced STAT phosphorylation in PANC-1 cells (western blot), STAT3; type: cell-based; settings: PANC-1, 10 ng/ml IFN-γ 15 min, 10 μM protein 2 hrs
Method: as §4
as §4, with “(vehicle) or 1, 5, 10 μM” for “(vehicle) or 10 μM”, “following antibodies: anti-phospho-STAT3 (Cell” for “following antibodies: anti-phospho-STAT1 (Cell Signaling Technology, USA) and anti-phospho-STAT3 (Cell”

[6] = Solubility/yield of SOCS3 recombinant proteins expressed and purified from E. coli; type: physicochemical; settings: expressed and purified in E. coli
Method: Thereafter, the recombinant protein gene-introduced E. coli was inoculated in 7 ml of LB medium, and then incubated at 37° C. overnight. The E. coli was inoculated in 700 ml of LB medium and incubated at 37° C. until OD600 reached 0.6. To this culture medium, 0.6 mM of isopropyl-β-D-thiogalactoside (IPTG, Gen Depot, USA) was added as a protein expression inducer, followed by further incubation at 37° C. for 3 hours. This culture medium was centrifuged at 4° C. and 8,000 rpm for 10 minutes and a supernatant was discarded to recover a cell pellet. The cell pellet thus recovered was suspended in a lysis buffer (100 mM NaH2PO4, 10 mM Tris-HCl, 8 M Urea, pH 8.0), and cells were disrupted by sonication (on/off time: 30 sec/30 sec, on time 2 hours, amplify 40%), and centrifuged at 15,000 rpm for 30 min to obtain a soluble fraction and an insoluble fraction.
After purification, the proteins were put in a SnakeSkin Dialysis Tubing bag (pore size: 10000 mw, Thermo scientific, USA) and then they were dialyzed by physiological buffer (DMEM). The strain lysate where protein expression was not induced, the strain lysate where protein expression was induced by addition of IPTG, and purified proteins were loaded on SDS-PAGE to analyze protein expression characteristics and expression levels (FIGS. 19 and 20).
Solubility of aMTD/SD-fused SOCS3 proteins was scored on a 5 point scale compared with that of SOCS3 proteins lacking the solubilization domain.

RAW 264.7 cells [7] = assay: Cell-permeability of FITC-labeled SOCS3 recombinant proteins (flow cytometry); type: cell-based; settings: 10 μM FITC-labeled protein, 1 hr, 37° C.
Method: (§5) To examine cell-permeability of SOCS3 recombinant protein, SOCS3 recombinant proteins were conjugated to 5/6-fluorescein isothiocyanate (FITC). RAW 264.7 (KCLB, Seoul, South Korea) (FIG. 20) or NIH3T3 cells (KCLB, Seoul, South Korea) (FIG. 21) were treated with 10 μM FITC-labeled SOCS3 recombinant proteins and cultivated for 1 hr at 37° C.
In this regard, RAW 264.7 cells were cultured in a DMEM medium containing 10% fetal bovine serum (FBS, Hyclone, USA) and […] of 1% penicillin/streptomycin (Hyclone, USA).
(§6) After cultivation, the cells were washed three times with ice-cold PBS (Phosphate-buffered saline, Hyclone, USA) and treated with proteinase K (10 μg/mL, SIGMA, USA) to remove surface-bound proteins, and internalized proteins were measured by flow cytometry (FlowJo cytometric analysis software, Guava, Millipore, Darmstadt, Germany). Untreated cells (gray) and equimolar concentration of unconjugated FITC (FITC only, green)-treated cells were served as control (FIG. 20). Each of NIH3T3 cells was incubated for 1 hour at 37° C. with 10 μM FITC-labeled SOCS3 protein. For nuclear staining, a mixture of […] Mounting Medium (Vector laboratories, Burlingame, Calif.) and DAPI (4′,6-diamidino-2-phenylindole) was added to NIH3T3 cells, and visualized using a confocal laser microscope (LSM700, Zeiss, Germany) (FIG. 21).

NIH3T3 cells [8] = assay: Intracellular delivery and localization of FITC-labeled SOCS3 recombinant proteins (confocal microscopy); type: cell-based, mouse; settings: 10 μM FITC-labeled SOCS3 protein, 1 hour, 37° C.
Method: as §5, §6

HepG2 cells [9] = assay: Cell-permeability of FITC-labeled SOCS3 recombinant proteins in hepatocellular carcinoma cells (flow cytometry); type: cell-based, human; settings: 10 μM FITC-labeled protein, 1 hr, 37° C.
Method: HepG2 cells (ATCC, Manassas, Va., USA) were seeded in a 12 well plate, grown to 90% confluence. Cells were treated with 10 μM FITC-labeled iCP-SOCS3 recombinant proteins and cultivated for 1 hr at 37° C.
After cultivation, the cells were treated with proteinase K (10 ug/mL, SIGMA, USA) and washed three times with ice-cold PBS (Phosphate-buffered saline, Hyclone, USA) to remove surface-bound proteins, and internalized proteins were measured by flow cytometry (FlowJo cytometric analysis software, Guava, Millipore, Darmstadt, Germany). Untreated cells (gray) and equimolar concentration of unconjugated FITC (FITC only, green)-treated cells were served as control (FIG. 57).

TNF-α = assay: LPS/IFN-γ-induced cytokine secretion in peritoneal macrophages (cytometric bead array), TNF-α; type: cell-based, C3H/HeJ mice; settings: 10 μM protein; IFN-γ and LPS
Method: as §3

RAW 264.7 cells [10] = assay: Quantitative cell-permeability of FITC-labeled aMTD- or rPeptide-fused CRA recombinant proteins (flow cytometry); type: cell-based; settings: RAW 264.7 cells, 10 μM FITC-labeled recombinant protein, 1 hour
Outline: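 RAW 264.7 cells were exposed to 10 μM FITC-labeled recombinant proteins, consisting of a non-functional cargo fused to aMTD or rPeptide sequences, for 1 hour at 37° C. Cells were washed three times in cold PBS and treated with 0.25% tripsin/EDTA for 20 minutes at 37° C. to strip surface-bound protein, then uptake was measured by flow cytometry.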

NIH3T3 cells [11] = assay: Intracellular delivery and localization of aMTD-/rPeptide-fused CRA recombinant proteins (confocal laser scanning microscopy); type: cell-based, mouse; settings: 10 μM FITC-labeled protein, 1 hour, 37
Method: NIH3T3 cells were exposed to 10 μM of FITC-labeled protein for 1 hour at 37, and nuclei were counterstained with DAPI. Then, cells were examined by confocal laser scanning microscopy (FIG. 7). […] The intracellular localization of the fluorescent signal was determined by confocal laser scanning microscopy (LSM700, Zeiss, Germany; FIGS. 7 and 8).

## O=c1[nH]cc(F)c(=O)[nH]1 [5-FU, reference compound]
Huh7 cells [1]
  induction of apoptosis (Annexin V), Huh7: hardly induced apoptosis
Hep3B cells
  induction of apoptosis (Annexin V), Hep3B: hardly induced apoptosis
SK-Hep-1 cells
  induction of apoptosis (Annexin V), SK-HEP-1: hardly induced apoptosis
[2]
  pIC50: 4.40
[3]
  amount of subG1: hardly increased the amount of subG1
HepG2 cells [4]; example 20-2
  induction of apoptosis (Annexin V), HepG2: hardly induced apoptosis

## N.N.[Cl][Pt][Cl] [Cisplatin, reference compound]
[2]
  pIC50: 4.52
Huh7 cells [5]
  induction of apoptosis (TUNEL), Huh7: hardly induced apoptosis
[3]
  amount of subG1: hardly increased the amount of subG1
HepG2 tumor
  body weight / adverse effects: remarkable weight loss
HepG2 cells [4]; example 20-1
  induction of apoptosis (Annexin V), HepG2, dose dependence: hardly induced apoptosis

## HS3: His-tagged SOCS3 recombinant protein lacking an aMTD and a SD [reference compound]
IL-6
  effect on IL-6 secretion: unchanged
STAT1
  IFN-γ-induced phosphorylation of STAT1: STAT phosphorylation was readily detected
STAT3
  IFN-γ-induced phosphorylation of STAT3: STAT phosphorylation was readily detected
[6]
  solubility (tendency to precipitate): largely insoluble; also recorded: less soluble
RAW 264.7 cells [7]
  cell-permeability (protein uptake): did not appear to enter cells
NIH3T3 cells [8]
  intracellular delivery and localization: did not appear to enter cells
HepG2 cells [9]
  transduction into HepG2 cells: did not appear to enter cells
TNF-α
  effect on TNF-α secretion: unchanged

## YYNQSTCGGQCY [rP38, reference compound]
RAW 264.7 cells [10]
  Relative Ratio to aMTD AVE: 0.3±0.04 fold
NIH3T3 cells [11]
  intracellular delivery and localization (internalized fluorescence signal): did not show internalized fluorescence signal
